Each structure is given as a SMILES string. Numbering of substitutions follows the chain as printed.

The first experiment concerns the target T1, AR protein (Homo sapiens, UniProt P10275, T878A).
T1 construct: degradation activity of the compounds disclosed in the present disclosure on AR protein in LNCaP cells; host or cells: LNCaP FGC
T1 sequence (P10275 1-920 T878A): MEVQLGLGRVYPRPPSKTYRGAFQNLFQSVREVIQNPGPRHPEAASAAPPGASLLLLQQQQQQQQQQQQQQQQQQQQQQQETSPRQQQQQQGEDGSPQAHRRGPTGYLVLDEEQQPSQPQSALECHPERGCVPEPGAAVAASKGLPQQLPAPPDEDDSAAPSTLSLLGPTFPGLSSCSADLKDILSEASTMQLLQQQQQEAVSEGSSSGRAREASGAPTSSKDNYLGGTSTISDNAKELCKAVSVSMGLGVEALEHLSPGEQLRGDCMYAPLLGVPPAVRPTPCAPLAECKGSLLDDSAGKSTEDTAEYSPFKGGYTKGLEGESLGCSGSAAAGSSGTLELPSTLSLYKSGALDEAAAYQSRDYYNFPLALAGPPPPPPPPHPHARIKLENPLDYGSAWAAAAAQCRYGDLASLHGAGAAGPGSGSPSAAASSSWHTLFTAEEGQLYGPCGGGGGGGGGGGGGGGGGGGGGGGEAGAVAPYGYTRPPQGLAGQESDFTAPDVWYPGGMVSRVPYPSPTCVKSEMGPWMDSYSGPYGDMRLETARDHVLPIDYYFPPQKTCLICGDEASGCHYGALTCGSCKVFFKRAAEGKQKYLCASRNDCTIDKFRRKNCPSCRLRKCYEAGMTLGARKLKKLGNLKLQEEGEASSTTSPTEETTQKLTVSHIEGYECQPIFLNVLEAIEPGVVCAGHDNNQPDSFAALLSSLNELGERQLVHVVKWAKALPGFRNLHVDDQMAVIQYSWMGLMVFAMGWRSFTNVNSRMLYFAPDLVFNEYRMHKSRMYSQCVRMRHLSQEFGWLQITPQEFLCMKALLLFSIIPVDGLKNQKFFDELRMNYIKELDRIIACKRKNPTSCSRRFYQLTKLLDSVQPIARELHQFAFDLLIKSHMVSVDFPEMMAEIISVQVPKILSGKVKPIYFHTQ
The experiment in a line: Degradation of AR protein in LNCaP cells (Western blot). The class given is cell-based. The following applies: LNCaP cells, compound 10 nM, 8 hours, Western blot grayscale, GAPDH internal reference; read-out: Degradation rates of the AR protein in LNCaP cells, 10 nM (%). The essentials: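 Percent AR degradation was derived from GAPDH-normalised Western blot band intensities (infrared detection) in LNCaP lysates.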
A general note: Immunoblotting shows a protein as a band on a membrane.
For `N#Cc1ccc(O[C@H]2CC[C@H](NC(=O)c3ccc(N4CCC5(CC(N6CCC7(CCc8cc9c(cc8O7)C(=O)N(C7CCC(=O)NC7=O)C9=O)CC6)C5)C4)nn3)CC2)cc1Cl` (stereo partly drawn) [Compound 35], the inhibition at 0.01 µM amounted to 17%.

For `N#Cc1ccc(O[C@H]2CC[C@H](NC(=O)c3ccc(N4CCC5(CC4)CC(F)(F)c4cc6c(cc4O5)C(=O)N(C4CCC(=O)NC4=O)C6=O)nn3)CC2)cc1Cl` (stereo partly drawn) [Compound 36], the inhibition at 0.01 µM turned out to be 18%.

For `N#Cc1ccc(O[C@H]2CC[C@H](NC(=O)c3ccc(N4CCC(CN5CCC6(CCc7cc8c(cc7O6)C(=O)N(C6CCC(=O)NC6=O)C8)CC5)CC4)nn3)CC2)cc1Cl` (stereo partly drawn) [Compound 44], the inhibition at 0.01 µM amounted to 85%.

The experiment is the same for the next values; noted with them: LNCaP cells, compound 100 nM, 8 hours, Western blot grayscale, GAPDH internal reference; read-out: Degradation rates of the AR protein in LNCaP cells, 100 nM (%).
For `N#Cc1ccc(O[C@H]2CC[C@H](NC(=O)c3ccc(N4CCC5(CC(N6CCC7(CCc8cc9c(cc8O7)C(=O)N(C7CCC(=O)NC7=O)C9=O)CC6)C5)C4)nn3)CC2)cc1Cl` (stereo partly drawn) [Compound 35], the inhibition at 0.1 µM stood at 50%.

Turning to `N#Cc1ccc(O[C@H]2CC[C@H](NC(=O)c3ccc(N4CCC5(CC4)CC(F)(F)c4cc6c(cc4O5)C(=O)N(C4CCC(=O)NC4=O)C6=O)nn3)CC2)cc1Cl` (stereo partly drawn) [Compound 36], the inhibition at 0.1 µM turned out to be 22%.

In the case of `N#Cc1ccc(O[C@H]2CC[C@H](NC(=O)c3ccc(N4CCC(CN5CCC6(CCc7cc8c(cc7O6)C(=O)N(C6CCC(=O)NC6=O)C8)CC5)CC4)nn3)CC2)cc1Cl` (stereo partly drawn) [Compound 44], the inhibition at 0.1 µM was determined as 84%.

In the next experiment the target is T2, AR protein (Homo sapiens, UniProt P10275).
T2 construct: degradation activity of the compounds disclosed in the present disclosure on AR protein in VCaP cells; host or cells: VCaP
T2 sequence (P10275 1-920): T1 sequence (P10275 1-920 T878A) with A878T
The experiment in a line: Degradation of AR protein in VCaP cells (Western blot). The class given is cell-based. As to conditions: compound at 10 nM, 8 hours, read-out: Degradation rate of the AR protein in VCaP cells, 10 nM (%). The essentials:
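Western blot readout: AR band grayscale normalised to GAPDH, used to derive degradation rate. Lysates came from VCaP cells exposed to compound for 8 h, with solvent controls run in parallel.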
`N#Cc1ccc(O[C@H]2CC[C@H](NC(=O)c3ccc(N4CCC5(CC(N6CCC7(CCc8cc9c(cc8O7)C(=O)N(C7CCC(=O)NC7=O)C9=O)CC6)C5)C4)nn3)CC2)cc1Cl` (stereo partly drawn) [Compound 35]: the inhibition at 0.01 µM came to 47%.

In the case of `N#Cc1ccc(O[C@H]2CC[C@H](NC(=O)c3ccc(N4CCC5(CC4)CC(F)(F)c4cc6c(cc4O5)C(=O)N(C4CCC(=O)NC4=O)C6=O)nn3)CC2)cc1Cl` (stereo partly drawn) [Compound 36], the inhibition at 0.01 µM was 17%.

For the compound `N#Cc1ccc(O[C@H]2CC[C@H](NC(=O)c3ccc(N4CCC(CN5CCC6(CCc7cc8c(cc7O6)C(=O)N(C6CCC(=O)NC6=O)C8)CC5)CC4)nn3)CC2)cc1Cl` (stereo partly drawn) [Compound 44], the inhibition at 0.01 µM was determined as 79%.

The same experiment, now with this note: compound at 100 nM, 8 hours, read-out: Degradation rate of the AR protein in VCaP cells, 100 nM (%).
Consider `N#Cc1ccc(O[C@H]2CC[C@H](NC(=O)c3ccc(N4CCC5(CC(N6CCC7(CCc8cc9c(cc8O7)C(=O)N(C7CCC(=O)NC7=O)C9=O)CC6)C5)C4)nn3)CC2)cc1Cl` (stereo partly drawn) [Compound 35], for which the inhibition at 0.1 µM is 58%.

Consider `N#Cc1ccc(O[C@H]2CC[C@H](NC(=O)c3ccc(N4CCC5(CC4)CC(F)(F)c4cc6c(cc4O5)C(=O)N(C4CCC(=O)NC4=O)C6=O)nn3)CC2)cc1Cl` (stereo partly drawn) [Compound 36], for which the inhibition at 0.1 µM worked out at 19%.

As to `N#Cc1ccc(O[C@H]2CC[C@H](NC(=O)c3ccc(N4CCC(CN5CCC6(CCc7cc8c(cc7O6)C(=O)N(C6CCC(=O)NC6=O)C8)CC5)CC4)nn3)CC2)cc1Cl` (stereo partly drawn) [Compound 44], the inhibition at 0.1 µM was 83%.

A further experiment concerns LNCaP FGC cells. Nature of the experiment: Inhibition of proliferation of LNCaP cells (WST-8). In kind it is cell-based. As to conditions: Homo sapiens, LNCaP, 96 h, LNCaP FGC cells, 96 hours, WST-8 absorbance at 450 nm; read-out: IC50 for inhibiting the proliferation of LNCaP cells. Here is the method:
The cells were cultured in a cell culture incubator with 5% CO2 at 37° C. overnight. […] On the sixth day, 96 well plates were taken out, and 20 μL of WST-8 (Beytime, C0040) reagent was added to each well.
On to `N#Cc1ccc(O[C@H]2CC[C@H](NC(=O)c3ccc(N4CCC5(CC(N6CCC7(CCc8cc9c(cc8O7)C(=O)N(C7CCC(=O)NC7=O)C9=O)CC6)C5)C4)nn3)CC2)cc1Cl` (stereo partly drawn) [Compound 35], for which the IC50 came out at 800 nM.

On to `N#Cc1ccc(O[C@H]2CC[C@H](NC(=O)c3ccc(N4CCC5(CC4)CC(F)(F)c4cc6c(cc4O5)C(=O)N(C4CCC(=O)NC4=O)C6=O)nn3)CC2)cc1Cl` (stereo partly drawn) [Compound 36], for which the IC50 worked out at 3200 nM.

On to `N#Cc1ccc(O[C@H]2CC[C@H](NC(=O)c3ccc(N4CCC(CN5CCC6(CCc7cc8c(cc7O6)C(=O)N(C6CCC(=O)NC6=O)C8)CC5)CC4)nn3)CC2)cc1Cl` (stereo partly drawn) [Compound 44], for which the IC50 is 1140 nM.

Another experiment concerns VCaP cells. The experiment in a line: Inhibition of proliferation of VCaP cells (WST-8). In kind it is cell-based. The following applies: Homo sapiens; VCaP cells, 168 hours, WST-8 absorbance at 450 nm; read-out: IC50 for inhibiting the proliferation of VCaP cells. The essentials: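 Proliferation was read by WST-8 on day nine. Cells were VCaP FGC, seeded at 15000 cells per well in 10% FBS DMEM and kept at 37° C with 5% CO2.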
(Tetrazolium assays rely on reduction of a dye to a coloured formazan, in cell work by metabolically active cells.)
With `N#Cc1ccc(O[C@H]2CC[C@H](NC(=O)c3ccc(N4CCC5(CC(N6CCC7(CCc8cc9c(cc8O7)C(=O)N(C7CCC(=O)NC7=O)C9=O)CC6)C5)C4)nn3)CC2)cc1Cl` (stereo partly drawn) [Compound 35], the IC50 turned out to be 500 nM.

For `N#Cc1ccc(O[C@H]2CC[C@H](NC(=O)c3ccc(N4CCC5(CC4)CC(F)(F)c4cc6c(cc4O5)C(=O)N(C4CCC(=O)NC4=O)C6=O)nn3)CC2)cc1Cl` (stereo partly drawn) [Compound 36], the IC50 stood at 7070 nM.

As to `N#Cc1ccc(O[C@H]2CC[C@H](NC(=O)c3ccc(N4CCC(CN5CCC6(CCc7cc8c(cc7O6)C(=O)N(C6CCC(=O)NC6=O)C8)CC5)CC4)nn3)CC2)cc1Cl` (stereo partly drawn) [Compound 44], the IC50 stood at 2.5 nM.

The record behind these values is patent publication US20260234157A1, “COMPOUND AND METHOD FOR TARGETED DEGRADATION OF ANDROGEN RECEPTOR” (Gan & Lee Pharmaceuticals Co., Ltd., priority 2023, published 2026).
